In US8003649B2 (AstraZeneca AB, priority 2007, dated 2011):

Biological target: T1, Androgen Receptor (AR) (Homo sapiens, UniProt P10275, T878A)
T1 construct: cell based immuno-fluorescence assay using the LNCaP prostate epithelial cell line; endogenous in cells; host or cells: LNCaP clone FGC (ATCC CRL-1740)
T1 sequence (P10275 1-920 T878A): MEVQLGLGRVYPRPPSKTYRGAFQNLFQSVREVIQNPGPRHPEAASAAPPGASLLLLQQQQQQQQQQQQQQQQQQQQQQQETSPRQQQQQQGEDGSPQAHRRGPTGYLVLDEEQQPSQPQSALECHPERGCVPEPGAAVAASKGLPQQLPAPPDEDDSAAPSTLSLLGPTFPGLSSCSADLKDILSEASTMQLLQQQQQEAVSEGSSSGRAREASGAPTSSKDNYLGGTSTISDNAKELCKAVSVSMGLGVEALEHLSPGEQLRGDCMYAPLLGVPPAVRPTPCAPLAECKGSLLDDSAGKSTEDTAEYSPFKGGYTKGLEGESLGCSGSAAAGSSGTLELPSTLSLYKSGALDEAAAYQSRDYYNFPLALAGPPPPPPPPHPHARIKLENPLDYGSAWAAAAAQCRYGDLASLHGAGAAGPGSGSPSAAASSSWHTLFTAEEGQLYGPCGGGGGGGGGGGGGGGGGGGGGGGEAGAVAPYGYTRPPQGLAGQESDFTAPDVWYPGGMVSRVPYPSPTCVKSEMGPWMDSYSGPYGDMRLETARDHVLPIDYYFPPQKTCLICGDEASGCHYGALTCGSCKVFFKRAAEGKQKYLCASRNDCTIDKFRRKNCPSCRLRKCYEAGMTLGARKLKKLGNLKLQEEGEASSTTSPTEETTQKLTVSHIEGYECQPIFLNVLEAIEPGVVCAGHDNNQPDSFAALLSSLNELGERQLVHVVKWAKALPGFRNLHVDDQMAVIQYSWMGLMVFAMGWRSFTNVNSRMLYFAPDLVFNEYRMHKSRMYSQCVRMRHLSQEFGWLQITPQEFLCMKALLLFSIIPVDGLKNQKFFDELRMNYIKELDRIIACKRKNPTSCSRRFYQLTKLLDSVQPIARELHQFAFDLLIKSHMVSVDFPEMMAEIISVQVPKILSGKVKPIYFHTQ
Assay: LNCaP Androgen Receptor Down-regulation Cell Assay (immunofluorescence end point)
Format: cell-based
Settings: LNCaP prostate carcinoma cells, compound incubation 20-22 hours, 50% reduction of the AR signal; read-out: Androgen Receptor Down-regulation Assay (a) IC50/μM
In short: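 AR loss reported as IC50 from curve fits of fluorescence dose-response data, with AR immunostained and read by laser-scanning cytometry. Compound exposure was 20-22 h at 37° C in LNCaP cells grown in 5% charcoal-stripped FBS and plated overnight beforehand.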

Row | SMILES | DC50
1 | FC(F)(F)c1nnc2ccc(N3CCN(Cc4cccs4)CC3)nn12 [Example 70, 6-[4-(thiophen-2-ylmethyl)piperazin-1-yl]-3-(trifluoromethyl)-[1,2,4]triazolo[4,3-b]pyridazine] | 0.64 µM
2 | C[C@@H]1CN(Cc2cc(F)cc(F)c2)CCN1c1ccc2nnc(C(F)(F)F)n2n1 [Example 602] | 1.6 µM
3 | FC(F)(F)c1nnc2ccc(N3CCN(c4ccc(OCCn5ccnc5)cc4)CC3)nn12 [Example 845, 6-[4-[4-[2-(1H-imidazol-1-yl)ethoxy]phenyl]piperazin-1-yl]-3-(trifluoromethyl)[1,2,4]triazolo[4,3-b]pyridazine] | 0.9 µM
4 | CC(C)Oc1ccc(CN2CCN(c3ccc4nnc(C(F)(F)F)n4n3)CC2)cc1 [Example 115, 6-[4-[(4-propan-2-yloxyphenyl)methyl]piperazin-1-yl]-3-(trifluoromethyl)-[1,2,4]triazolo[4,3-b]pyridazine] | 2.5 µM
5 | N#Cc1cccc(OCC2CCN(c3ccc4nnc(C(F)(F)F)n4n3)CC2)c1 [Example 476] | 3.5 µM
6 | FC(F)(F)c1nnc2ccc(N3CCC(c4cccc(OCCN5CCCC5)c4)CC3)nn12 [Example 671] | 1.6 µM
7 | N#Cc1cccc(CN2CCN(c3ccc4nnc(C(F)(F)F)n4n3)CC(F)(F)C2)c1 [Example 844] | 0.78 µM
8 | CC(C)(C)OCC1CCN(c2ccc3nnc(C(F)(F)F)n3n2)CC1 [Example 489, 6-[4-(tert-butoxymethyl)piperidin-1-yl]-3-(trifluoromethyl)[1,2,4]triazolo[4,3-b]pyridazine] | 3.6 µM
9 | CN(Cc1ccc(F)cc1)C1CCN(c2ccc3nnc(C(F)(F)F)n3n2)CC1 [Example 407] | 5.7 µM
10 | FC(F)(F)c1cccc(CN2CCN(c3ccc4nnc(C(F)(F)F)n4c3)CC2)c1 [Example 185, 3-(trifluoromethyl)-6-[4-[[3-(trifluoromethyl)phenyl]methyl]piperazin-1-yl]-[1,2,4]triazolo[4,3-a]pyridine] | 0.68 µM
11 | Fc1cc(CN2CCN(c3ccc4nnc(C(F)(F)F)n4n3)CC2)cc(F)c1F [Example 767] | > 12 µM
12 | CC(C)(C)OC(=O)N1CC2CN(c3ccc4nnc(C(F)(F)F)n4n3)CC2C1 (stereo not drawn) [Example 211, tert-butyl 5-(3-(trifluoromethyl)-[1,2,4]triazolo[4,3-b]pyridazin-6-yl)hexahydropyrrolo[3,4-c]pyrrole-2(1H)-carboxylate] | 8.2 µM
13 | NC(=O)COc1ccc(CN2CCN(c3ccc4nnc(C(F)(F)F)n4n3)CC2)cc1 [Example 153, 2-[4-[[4-[3-(trifluoromethyl)-[1,2,4]triazolo[4,3-b]pyridazin-6-yl]piperazin-1-yl]methyl]phenoxy]acetamide] | 7.9 µM
14 | Cn1nccc1CCOc1cccc(C2CCN(c3ccc4nnc(C(F)(F)F)n4n3)CC2)c1 [Example 682] | 0.58 µM
15 | FC(F)c1ccc(CN2CCN(c3ccc4nnc(C(F)(F)F)n4n3)CC2)cc1 [Example 827, 6-[4-[4-(difluoromethyl)benzyl]piperazin-1-yl]-3-(trifluoromethyl)[1,2,4]triazolo[4,3-b]pyridazine] | 1 µM
16 | O=C(c1ccc(N2CCN(c3ccc4nnc(C(F)(F)F)n4n3)CC2)cc1)N1CCOCC1 [Example 749] | > 22 µM
17 | Fc1cccc(F)c1CN1CCN(c2ccc3nnc(C(F)(F)F)n3n2)CC1 [Example 384] | 2.9 µM
18 | N#Cc1cnn(CCOc2ccc(N3CCN(c4ccc5nnc(C(F)(F)F)n5n4)CC3)cc2)c1 [Example 848, 1-[2-[4-[4-[3-(trifluoromethyl)[1,2,4]triazolo[4,3-b]pyridazin-6-yl]piperazin-1-yl]phenoxy]ethyl]-1H-pyrazole-4-carbonitrile] | 3.5 µM
19 | N#Cc1ccc(CN2CCCN(c3ccc4nnc(C(F)(F)F)n4n3)CC2)cc1 [Example 170, 4-[[4-[3-(trifluoromethyl)-[1,2,4]triazolo[4,3-b]pyridazin-6-yl]-1,4-diazepan-1-yl]methyl]benzonitrile] | 0.61 µM

Now from value to compound:

Row | DC50 | SMILES
20 | 0.81 µM | FC(F)(F)c1nnc2ccc(N3CCC(Oc4cccc(Cl)n4)CC3)nn12 [Example 716]
21 | 0.85 µM | C[C@@H]1CN(Cc2ccc(C#N)cc2)CCN1c1ccc2nnc(C(F)(F)F)n2n1 [Example 600]
22 | 4.8 µM | Fc1ccc(F)c(CN2CCN(c3ccc4nnc(C(F)F)n4n3)CC2)c1 [Example 259]
23 | 0.63 µM | O=C(CCCN1CCCC1)Nc1cccc(C2CCN(c3ccc4nnc(C(F)(F)F)n4n3)CC2)c1 [Example 660]
24 | 2.4 µM | FC(F)(F)c1nnc2ccc(N3CCN(Cc4ccco4)CC3)nn12 [Example 79, 6-[4-(furan-2-ylmethyl)piperazin-1-yl]-3-(trifluoromethyl)-[1,2,4]triazolo[4,3-b]pyridazine]
25 | 1.5 µM | FC(F)(F)c1nnc2ccc(N3CCN(Cc4cccc5cc[nH]c45)CC3)nn12 [Example 63, 6-[4-(1H-indol-7-ylmethyl)piperazin-1-yl]-3-(trifluoromethyl)-[1,2,4]triazolo[4,3-b]pyridazine]
26 | 0.38 µM | FC(F)(F)c1cnc(N2CCCN(c3ccc4nnc(C(F)(F)F)n4n3)CC2)c(Cl)c1 [Example 30, 6-[4-[3-chloro-5-(trifluoromethyl)pyridin-2-yl]-1,4-diazepan-1-yl]-3-(trifluoromethyl)-[1,2,4]triazolo[4,3-b]pyridazine]
27 | 3.8 µM | CN1CCN(C(=O)c2cccc(OC3CCN(c4ccc5nnc(C(F)(F)F)n5n4)CC3)c2)CC1 [Example 687]
28 | 2.3 µM | O=C(c1cccc(OC2CCN(c3ccc4nnc(C(F)(F)F)n4n3)CC2)c1)N1CCOCC1 [Example 693]
29 | 7.1 µM | O=C(c1cccc(OC2CCN(c3ccc4nnc(C(F)(F)F)n4n3)CC2)c1)N1CC[C@H](O)C1 [Example 700]
30 | 6.3 µM | Fc1ccc(CN2CCN(c3ccc4nnc(C(F)F)n4n3)CC2)c(F)c1 [Example 249]
31 | 9.1 µM | CN(CCO)C(=O)c1ccc(OC2CCN(c3ccc4nnc(C(F)(F)F)n4n3)CC2)cc1 [Example 412, N-(2-hydroxyethyl)-N-methyl-4-[[1-[3-(trifluoromethyl)-[1,2,4]triazolo[4,3-b]pyridazin-6-yl]piperidin-4-yl]oxy]benzamide]
32 | 2.5 µM | CCOc1ccc(CN2CCN(c3ccc4nnc(C(F)(F)F)n4n3)CC2)cn1 [Example 147, 6-[4-[(6-ethoxypyridin-3-yl)methyl]piperazin-1-yl]-3-(trifluoromethyl)-[1,2,4]triazolo[4,3-b]pyridazine]
33 | 2 µM | N#Cc1ccc(-c2nc(N3CCN(c4ccc5nnc(C(F)(F)F)n5n4)CC3)no2)cc1 [Example 277]
34 | > 33 µM | CS(=O)(=O)c1cc(F)cc(CN2CCN(c3ccc4nnc(C(F)F)n4n3)CC2)c1 [Example 859, 3-(difluoromethyl)-6-[4-[3-fluoro-5-(methylsulfonyl)benzyl]piperazin-1-yl][1,2,4]triazolo[4,3-b]pyridazine]
35 | 1.5 µM | O=C(NCCN1CCCC1)c1cccc(C2CCN(c3ccc4nnc(C(F)(F)F)n4n3)CC2)c1 [Example 644]
36 | 4.3 µM | CS(=O)(=O)c1ccccc1CN1CCN(c2ccc3nnc(C(F)(F)F)n3n2)CC1 [Example 57, 6-[4-[(2-methylsulfonylphenyl)methyl]piperazin-1-yl]-3-(trifluoromethyl)-[1,2,4]triazolo[4,3-b]pyridazine]
